Source: patent US6713455B2, “6-O-carbamate-11,12-lacto-ketolide antimicrobials” (Ortho-McNeil Pharmaceutical, Inc., priority 2001, dated 2004)
In brackets after ≈: the same amount, converted by molar mass.

Columns and labels:
Test in all cases: MIC, microdilution broth method (NCCLS)
Format in all cases: cell-based
Conditions in all cases: 35° C., 16-20 hours
E. coli OC2605 = test system: E. coli OC2605
Experimental: (§1) Minimal inhibitory concentration (MIC) has been an indicator of in vitro antibacterial activity widely used in the art. The in vitro antimicrobial activity of the compounds was determined by the microdilution broth method following the test method from the National Committee for Clinical Laboratory Standards (NCCLS). This method is described in the NCCLS Document M7-A4, Vol.17, No.2, “Methods for Dilution Antimicrobial Susceptibility Test for Bacteria that Grow Aerobically—Fourth Edition”, which is incorporated herein by reference.
(§2) In this method two-fold serial dilutions of drug in cation adjusted Mueller-Hinton broth are added to wells in microdilution trays. The test organisms are prepared by adjusting the turbidity of actively growing broth cultures so that the final concentration of test organism after it is added to the wells is approximately 5×10^4 CFU/well.
(§3) Following inoculation of the microdilution trays, the trays are incubated at 35° C. for 16-20 hours and then read. […] The amount of growth in the wells containing the test compound is compared with the amount of growth in the growth-control wells (no test compound) used in each tray. As set forth in Table 1, compounds of the present invention were tested against a variety of Gram positive and Gram negative pathogenic bacteria resulting in a range of activities depending on the organism tested.

S. pneumoniae ATCC49619 = test system: S. pneumoniae ATCC49619
Experimental: as §1, §2, §3

S. aureus ATCC29213 = test system: S. aureus ATCC29213
Experimental: as §1, §2, §3

E. faecalis ATCC29212 = test system: E. faecalis ATCC29212
Experimental: as §1, §2, §3

H. influenzae ATCC49247 = test system: H. influenzae ATCC49247
Experimental: as §1, §2, §3

CCC1OC(=O)C(C)C(=O)C(C)C(OC2OC(C)CC(N(C)C)C2O)C(C)(OC(=O)NCc2ccc3ccccc3n2)CC(C)C(=O)C(C)C2CC(=O)OC12C (stereo not drawn) [Compound 28]
MIC (μg/mL) A (E. coli OC2605): >16 µg/mL | MIC (μg/mL) D (S. pneumoniae ATCC49619): 0.12 µg/mL (≈ 0.153 µM) | MIC (μg/mL) B (S. aureus ATCC29213): 2 µg/mL (≈ 2.56 µM) | MIC (μg/mL) C (E. faecalis ATCC29212): 0.5 µg/mL (≈ 0.639 µM) | MIC (μg/mL) E (H. influenzae ATCC49247): 8 µg/mL (≈ 10.2 µM)

CCC1OC(=O)C(C)C(=O)C(C)C(OC2OC(C)CC(N(C)C)C2O)C(C)(OC(=O)NCC=Cc2ccc(-c3ccccn3)cc2)CC(C)C(=O)C(C)C2CC(=O)OC12C (stereo not drawn) [Compound 29]
MIC (μg/mL) A (E. coli OC2605): >16 µg/mL | MIC (μg/mL) D (S. pneumoniae ATCC49619): 0.06 µg/mL (≈ 0.0719 µM) | MIC (μg/mL) B (S. aureus ATCC29213): 0.5 µg/mL (≈ 0.6 µM) | MIC (μg/mL) C (E. faecalis ATCC29212): 0.25 µg/mL (≈ 0.3 µM) | MIC (μg/mL) E (H. influenzae ATCC49247): 2 µg/mL (≈ 2.4 µM)

CCC1OC(=O)C(C)C(=O)C(C)C(OC2OC(C)CC(N(C)C)C2O)C(C)(OC(=O)NCC=Cc2ccc3cccnc3c2)CC(C)C(=O)C(C)C2CC(=O)OC12C (stereo not drawn) [Compound 31]
MIC (μg/mL) A (E. coli OC2605): 16 µg/mL (≈ 19.8 µM) | MIC (μg/mL) D (S. pneumoniae ATCC49619): 0.03 µg/mL (≈ 0.0371 µM) | MIC (μg/mL) B (S. aureus ATCC29213): 0.25 µg/mL (≈ 0.309 µM) | MIC (μg/mL) C (E. faecalis ATCC29212): 0.06 µg/mL (≈ 0.0743 µM) | MIC (μg/mL) E (H. influenzae ATCC49247): >16 µg/mL

CCC1OC(=O)C(C)C(=O)C(C)C(OC2OC(C)CC(N(C)C)C2O)C(C)(OC(=O)NCC=Cc2ccc(-c3ncccn3)cc2F)CC(C)C(=O)C(C)C2CC(=O)OC12C (stereo not drawn) [Compound 32]
MIC (μg/mL) A (E. coli OC2605): >16 µg/mL | MIC (μg/mL) D (S. pneumoniae ATCC49619): 0.06 µg/mL (≈ 0.0703 µM) | MIC (μg/mL) B (S. aureus ATCC29213): 0.5 µg/mL (≈ 0.586 µM) | MIC (μg/mL) C (E. faecalis ATCC29212): 0.25 µg/mL (≈ 0.293 µM) | MIC (μg/mL) E (H. influenzae ATCC49247): 8 µg/mL (≈ 9.38 µM)

CCC1OC(=O)C(C)C(=O)C(C)C(OC2OC(C)CC(N(C)C)C2O)C(C)(OC(=O)NCC=Cc2ccccn2)CC(C)C(=O)C(C)C2CC(=O)OC12C (stereo not drawn) [Compound 33]
MIC (μg/mL) A (E. coli OC2605): >16 µg/mL | MIC (μg/mL) D (S. pneumoniae ATCC49619): 0.12 µg/mL (≈ 0.158 µM) | MIC (μg/mL) B (S. aureus ATCC29213): 2 µg/mL (≈ 2.64 µM) | MIC (μg/mL) C (E. faecalis ATCC29212): 0.5 µg/mL (≈ 0.66 µM) | MIC (μg/mL) E (H. influenzae ATCC49247): 8 µg/mL (≈ 10.6 µM)

CCC1OC(=O)C(C)C(=O)C(C)C(OC2OC(C)CC(N(C)C)C2O)C(C)(OC(=O)NCC=Cc2cccnc2)CC(C)C(=O)C(C)C2CC(=O)OC12C (stereo not drawn) [Compound 34]
MIC (μg/mL) A (E. coli OC2605): >16 µg/mL | MIC (μg/mL) D (S. pneumoniae ATCC49619): 0.06 µg/mL (≈ 0.0792 µM) | MIC (μg/mL) B (S. aureus ATCC29213): 0.5 µg/mL (≈ 0.66 µM) | MIC (μg/mL) C (E. faecalis ATCC29212): 0.12 µg/mL (≈ 0.158 µM) | MIC (μg/mL) E (H. influenzae ATCC49247): 2 µg/mL (≈ 2.64 µM)

CCC1OC(=O)C(C)C(=O)C(C)C(OC2OC(C)CC(N(C)C)C2O)C(C)(OC(=O)NCC=Cc2ccc(-c3ccccc3)nc2)CC(C)C(=O)C(C)C2CC(=O)OC12C (stereo not drawn) [Compound 35]
MIC (μg/mL) A (E. coli OC2605): >16 µg/mL | MIC (μg/mL) D (S. pneumoniae ATCC49619): 0.12 µg/mL (≈ 0.144 µM) | MIC (μg/mL) B (S. aureus ATCC29213): 0.5 µg/mL (≈ 0.6 µM) | MIC (μg/mL) C (E. faecalis ATCC29212): 0.25 µg/mL (≈ 0.3 µM) | MIC (μg/mL) E (H. influenzae ATCC49247): 4 µg/mL (≈ 4.8 µM)

CCC1OC(=O)C(C)C(=O)C(C)C(OC2OC(C)CC(N(C)C)C2O)C(C)(OC(=O)NCc2ccc(C=Cc3ccc4ccccc4n3)cc2)CC(C)C(=O)C(C)C2CC(=O)OC12C (stereo not drawn) [Compound 36]
MIC (μg/mL) A (E. coli OC2605): >16 µg/mL | MIC (μg/mL) D (S. pneumoniae ATCC49619): 0.25 µg/mL (≈ 0.283 µM) | MIC (μg/mL) B (S. aureus ATCC29213): 4 µg/mL (≈ 4.52 µM) | MIC (μg/mL) C (E. faecalis ATCC29212): 1 µg/mL (≈ 1.13 µM) | MIC (μg/mL) E (H. influenzae ATCC49247): 16 µg/mL (≈ 18.1 µM)

CC[C@H]1OC(=O)[C@H](C)C(=O)[C@H](C)[C@@H](OC2O[C@H](C)C[C@H](N(C)C)[C@H]2O)[C@](C)(OC(=O)NC/C=C/c2cn(-c3ncccn3)cn2)C[C@@H](C)C(=O)C(C)C2CC(=O)O[C@@]21C (stereo partly drawn) [Compound 37]
MIC (E. coli OC2605; Escherichia coli): > 16 µg/mL | MIC (S. pneumoniae ATCC49619; Streptococcus pneumoniae): 0.03 µg/mL (≈ 0.0364 µM) | MIC (S. aureus ATCC29213; Staphylococcus aureus): 0.5 µg/mL (≈ 0.606 µM) | MIC (E. faecalis ATCC29212; Enterococcus faecalis): 0.12 µg/mL (≈ 0.145 µM) | MIC (H. influenzae ATCC49247; Haemophilus influenzae): 4 µg/mL (≈ 4.85 µM)

CCC1OC(=O)C(C)C(=O)C(C)C(OC2OC(C)CC(N(C)C)C2O)C(C)(OC(=O)NCC=Cc2ccc3nccnc3c2)CC(C)C(=O)C(C)C2CC(=O)OC12C (stereo not drawn) [Compound 38]
MIC (μg/mL) A (E. coli OC2605): >16 µg/mL | MIC (μg/mL) D (S. pneumoniae ATCC49619): 0.03 µg/mL (≈ 0.0371 µM) | MIC (μg/mL) B (S. aureus ATCC29213): 0.5 µg/mL (≈ 0.618 µM) | MIC (μg/mL) C (E. faecalis ATCC29212): 0.12 µg/mL (≈ 0.148 µM) | MIC (μg/mL) E (H. influenzae ATCC49247): 2 µg/mL (≈ 2.47 µM)

CCC1OC(=O)C(C)C(=O)C(C)C(OC2OC(C)CC(N(C)C)C2O)C(C)(OC(=O)NCC=Cc2ccnc3ccccc23)CC(C)C(=O)C(C)C2CC(=O)OC12C (stereo not drawn) [Compound 39]
MIC (μg/mL) A (E. coli OC2605): 16 µg/mL (≈ 19.8 µM) | MIC (μg/mL) D (S. pneumoniae ATCC49619): 0.03 µg/mL (≈ 0.0371 µM) | MIC (μg/mL) B (S. aureus ATCC29213): 0.5 µg/mL (≈ 0.619 µM) | MIC (μg/mL) C (E. faecalis ATCC29212): 0.12 µg/mL (≈ 0.149 µM) | MIC (μg/mL) E (H. influenzae ATCC49247): 4 µg/mL (≈ 4.95 µM)

CCC1OC(=O)C(C)C(=O)C(C)C(OC2OC(C)CC(N(C)C)C2O)C(C)(OC(=O)NCC=Cc2cncc(-c3ncccn3)c2)CC(C)C(=O)C(C)C2CC(=O)OC12C (stereo not drawn) [Compound 40]
MIC (μg/mL) A (E. coli OC2605): 16 µg/mL (≈ 19.1 µM) | MIC (μg/mL) D (S. pneumoniae ATCC49619): 0.03 µg/mL (≈ 0.0359 µM) | MIC (μg/mL) B (S. aureus ATCC29213): 0.25 µg/mL (≈ 0.299 µM) | MIC (μg/mL) C (E. faecalis ATCC29212): 0.12 µg/mL (≈ 0.144 µM) | MIC (μg/mL) E (H. influenzae ATCC49247): 1 µg/mL (≈ 1.2 µM)
